Measured values taken from ChEMBL document CHEMBL1151926, “Synthesis and SAR of C12-C13-oxazoline derivatives of epothilone A” (Bioorg Med Chem Lett, 2009).

Assays:
A549 = assay: Antiproliferative activity against human A549 cells after 72 hrs; type: functional, cell-based; conditions: A549, 72 h
MCF7 = assay: Antiproliferative activity against human MCF7 cells after 72 hrs; type: functional, cell-based; conditions: MCF7, 72 h
Tubulin (Sus scrofa) [1] = assay: Induction of porcine brain tubulin polymerization at 5 uM relative to 25 uM epothilone B
Tubulin (Sus scrofa) [2] = assay: Induction of porcine brain tubulin polymerization at 2 uM relative to 25 uM epothilone B
[3] = Antiproliferative activity against human KB-3-1 cells after 72 hrs; type: functional, cell-based; conditions: KB 3-1, 72 h

| IC50 (A549) | IC50 (MCF7) | Activity (Tubulin (Sus scrofa) [1]) | Activity (Tubulin (Sus scrofa) [2]) | SMILES | IC50 [3] |
| --- | --- | --- | --- | --- | --- |
| 378 nM | 297 nM | 36% | 32% | CCc1ccc(C2=N[C@H]3CCC[C@H](C)[C@H](O)[C@@H](C)C(=O)C(C)(C)[C@@H](O)CC(=O)O[C@H](/C(C)=C/c4csc(C)n4)C[C@@H]3O2)cc1 |  |
| 2.9 nM | 1.9 nM | 88% | 71% | C/C(=C\c1csc(C)n1)[C@@H]1C[C@@H]2OC(c3ccc(C)cc3)=N[C@H]2CCC[C@H](C)[C@H](O)[C@@H](C)C(=O)C(C)(C)[C@@H](O)CC(=O)O1 |  |
|  |  |  |  | COC1=N[C@H]2CCC[C@H](C)[C@H](O)[C@@H](C)C(=O)C(C)(C)[C@@H](O)CC(=O)O[C@H](/C(C)=C/c3csc(C)n3)C[C@@H]2O1 | > 1000 nM |
| 4870 nM | 5140 nM | 15% | 14% | C/C(=C\c1csc(C)n1)[C@@H]1C[C@@H]2OC(c3ccc(C(C)C)cc3)=N[C@H]2CCC[C@H](C)[C@H](O)[C@@H](C)C(=O)C(C)(C)[C@@H](O)CC(=O)O1 |  |
|  |  |  |  | CC1=N[C@H]2CCC[C@H](C)[C@H](O)[C@@H](C)C(=O)C(C)(C)[C@@H](O)CC(=O)O[C@H](/C(C)=C/c3csc(C)n3)C[C@@H]2O1 | > 1000 nM |
| > 10000 nM | > 10000 nM | 7% | 0% | C/C(=C\c1csc(C)n1)[C@@H]1C[C@@H]2OC(c3ccc(C(C)(C)C)cc3)=N[C@H]2CCC[C@H](C)[C@H](O)[C@@H](C)C(=O)C(C)(C)[C@@H](O)CC(=O)O1 |  |
| 0.92 nM | 1.3 nM | 93% | 78% | C/C(=C\c1csc(C)n1)[C@@H]1C[C@@H]2OC(c3cccnc3)=N[C@H]2CCC[C@H](C)[C@H](O)[C@@H](C)C(=O)C(C)(C)[C@@H](O)CC(=O)O1 |  |
| 16.4 nM | 19.2 nM | 80% | 65% | C/C(=C\c1csc(C)n1)[C@@H]1C[C@@H]2OC(c3ccccc3)=N[C@H]2CCC[C@H](C)[C@H](O)[C@@H](C)C(=O)C(C)(C)[C@@H](O)CC(=O)O1 |  |

| SMILES | IC50 (A549) | IC50 (MCF7) | Activity (Tubulin (Sus scrofa) [1]) | Activity (Tubulin (Sus scrofa) [2]) | IC50 [3] |
| --- | --- | --- | --- | --- | --- |
| C/C(=C\c1csc(C)n1)[C@@H]1CC2O[C@@H]2CCC[C@H](C)[C@H](O)[C@@H](C)C(=O)C(C)(C)[C@@H](O)CC(=O)O1 (single isomer, unassigned) [EPOTHILONE A] | 2.2 nM | 2.6 nM | 89% | 83% |  |
